15 molecules from patent US20240124454A1, “TRICYCLIC COMPOUND AND USE THEREOF” (NANJING ZAIMING PHARMACEUTICAL CO., LTD., priority 2020, published 2024) can be followed below.

For experiment [1], the target named is MAT2A (Homo sapiens (Human), UniProt P31153). As to the kind of experiment: MAT2A biochemical test (inorganic phosphate colorimetric, PiColorLock). The conditions noted are these: read-out: MAT2A inhibitory Activity IC50. From the text: Test Example 1. Biochemical Test
The brief introduction of the test principle: L-methionine and ATP can be converted into SAM, inorganic phosphate, and inorganic diphosphate under the catalysis of MAT2A enzymes. The content of inorganic phosphate in the sample can be quantitatively determined by adding a developer such as ammonium molybdate or the like to the enzymatic reaction mixture, thereby reflecting the enzymatic activity of MAT2A.
(§1) Reference: The experiment referred to the method disclosed in patent WO2018045071.
Material: MAT2A screening kits were purchased from BPS bioscience (U.S.); 384-well plates were purchased from Corning Company (U.S.). • 1. MAT2A protein (Pharmaron Beijing Co., Ltd.); • 2. L-methionine (Sigma #M9625-5G) • 3. ATP (Sigma #A7699-1G) • 4. KCl (Sigma #60142-500ML-F) • 5. Tris (Sigma #T2663-1L) • 6. MgCl2 (Sigma #M1028) • 7. EDTA (Invitrogen #AM9260G) • 8. BSA (Sangon Biotech #A500023-0100) • 9. PiColorLock (abcam #ab270004)
Detection method: In the experimental group, the test compound was dissolved in DMSO, diluted to a final concentration of 10 μM using Echo, and diluted 3-fold. 80 nL of the dilution was transferred to a 384-well plate.
The experimental buffer (50 mM Tris, 50 mM KCl, 15 mM MgCl2, 100 μM EDTA, 0.005% BSA) was prepared. The MAT2A protein was diluted with the experimental buffer (at final concentration of […]). 40 μL of 2×MAT2A solution was added to the 384-well plate. The plate was centrifuged at 1000 rpm for 1 min and incubated at room temperature for 120 min.
L-methionine and ATP (the final concentration of L-methionine was […] and the final concentration of ATP was 400 μM) were diluted with the experimental buffer. 40 μL of 2×L-methionine and ATP solution was added to initiate the reaction. The plate was centrifuged at 1000 rpm for 1 min and incubated at room temperature for 90 min.
The PiColorLock™ reaction catalyst was mixed with the PiColorLock™ buffer at a ratio of 1:100 according to the instructions. 20 μL was added to each well, and the plate was shaken for 30 s. 8 μL stabilizing reagent was added, and the plate was shaken for 30 s. The signal values were measured after 30 min of incubation at room temperature.
A negative control group and a positive control group were respectively used as Bottom and Top. The negative control group was not added with MAT2A protein, and other operations were consistent with those of the experimental group. The positive control group was not added with the test compound, only added with DMSO in the same volume, and other operations were consistent with those of the experimental group.
(§2) The % Compound inhibition was calculated and fitted to give the IC50 of the compound.
(§3) % Compound inhibition=1-100%×(Signal−Bottom)/(Top−Bottom).
(§4) Signal referred to the signal value of the experimental group, Bottom referred to the average signal value of the negative control group, and Top referred to the average signal value of the positive control group.
Under the condition of this experiment, the inhibitory effect of the test compound on MAT2A can be expressed as the IC50 of the inhibition on the phosphate production level during the enzymatic reaction.

Experiment [2] deals with HCT116 MTAP^−/− cells. As to the kind of experiment: Cell proliferation inhibition test (Cell-Titer Glo), HCT116 MTAP−/−. In kind it is cell-based, human. The conditions noted are these: Homo sapiens, HCT-116, 144 h, 6 days, read-out: HCT116 MTAP−/− Antiproliferative activity IC50. The method, then: (§5) Test Example 3. Cell Proliferation Inhibition Test of Human Colon Cancer HCT116 WT Cells and HCT116 MTAP-1-Cells
(§6) The brief introduction of the test principle: After the test MAT2A inhibitor was incubated with cancer cells for a period of time, the effect of the test compound on cell proliferation was measured using a cell proliferation count method based on the ATP content.
as §1
(§7) Material and cell: HCT116 WT cells and HCT116 MTAP^−/− cells were purchased from KYinno; fetal bovine serum, McCoy's 5a culture medium, and penicillin-streptomycin were purchased from Gibco Company (U.S.), 96-well plates were purchased from Corning Company (U.S.), and the Cell-Titer Glo reagent was purchased from Promega Company (U.S.).
(§8) Cell culture: HCT116 WT cells and HCT116 MTAP^−/− cells were cultured with a McCoy's 5a medium containing 10% fetal bovine serum+1% penicillin-streptomycin at 37° C. with 5% CO2.
(§9) Cells at logarithmic growth phase were available for the experiment.
(§10) Cell proliferation activity test: The Cell-Titer Glo reagent was used to test the compound for inhibitory activity on proliferation of both HCT116 WT and HCT116 MTAP^−/− cell strains. The cells were adjusted to a concentration of 400 cells per well, seeded on a 96-well plate, and incubated overnight at 37° C. with 5% CO2.
(§11) In the experimental group, the test compound was diluted sequentially with DMSO and a culture medium, and transferred to a cell plate at a final concentration of 10 μM, 3-fold dilution. The cells were continuously cultured at 37° C. with 5% CO2 for 6 days. The Cell-Titer Glo reagent was added and the cell activity was measured.
(§12) A negative control group and a positive control group were respectively used as Bottom and Top. The negative control group was not added with cells, only added with the culture medium in the same volume, and other operations were consistent with those of the experimental group. The positive control group was not added with the test compound, only added with DMSO in the same volume, and other operations were consistent with those of the experimental group.
as §2, §3, §4
(§13) HCT116 MTAP^−/− cells are cells not expressing MTAP protein obtained by site-directed knockout of wild type HCT116 (HCT116 WT) cells by gene knockout. Synthetic lethality will occur due to MAT2A inhibition and the deletion of MTAP, thereby causing tumor cell death. The activity and selectivity of the MAT2A inhibitor can be evaluated by testing the antiproliferative activity of the MAT2A inhibitor on human colon cancer HCT116 MTAP^−/− cells and human colon cancer HCT116 WT.

Experiment [3] deals with HCT116 WT cells. In words: Cell proliferation inhibition test (Cell-Titer Glo), HCT116 WT. The class given is cell-based, human. The conditions noted are these: Homo sapiens, HCT-116, 144 h, 6 days, read-out: HCT116 WT Antiproliferative activity IC50. As for the experimental part: as §5, §6, §1, §7, §8, §9, §10, §11, §12, §2, §3, §4, §13

pIC50: −log10 of the molar value. Like-named read-outs stand apart in the source and are kept apart here. Where only a bound is given, the exact number is not on record here.

Sequence of MAT2A (P31153 whole entry): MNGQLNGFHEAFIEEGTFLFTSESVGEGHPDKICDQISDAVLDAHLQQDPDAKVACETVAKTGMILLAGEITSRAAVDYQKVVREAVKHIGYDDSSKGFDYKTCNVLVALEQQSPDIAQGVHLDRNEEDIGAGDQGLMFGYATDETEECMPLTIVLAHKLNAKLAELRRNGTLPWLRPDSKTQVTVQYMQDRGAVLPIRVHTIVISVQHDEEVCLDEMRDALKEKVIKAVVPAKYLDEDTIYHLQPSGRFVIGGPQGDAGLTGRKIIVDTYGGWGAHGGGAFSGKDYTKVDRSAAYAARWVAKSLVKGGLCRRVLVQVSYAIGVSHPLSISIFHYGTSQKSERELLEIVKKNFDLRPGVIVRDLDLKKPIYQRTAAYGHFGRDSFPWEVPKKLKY

Regarding `Cn1cnc2c(=O)n(-c3cccnc3C(F)(F)F)c3nc(C(F)(F)F)ccc3c21` (atropisomer, axis not shown) [Compound 41, 1-methyl-7-(trifluoromethyl)-5-(2-(trifluoromethyl)pyridin-3-yl)-1,5-dihydro-4H-imidazo[4,5-c][1,8]naphthyridin-4-one], the pIC50 is > 7.00 in experiment [1] (class symbols), 7.25 in experiment [1] (numeric values), 6.78 in experiment [2] and 5.10 in experiment [3].

For `Cn1cnc2c(=O)n(-c3cccnc3C3CC3)c3nc(C(F)(F)F)ccc3c21` (atropisomer, axis not shown) [Compound 42, 5-(2-cyclopropylpyridin-3-yl)-1-methyl-7-(trifluoromethyl)-1,5-dihydro-4H-imidazo[4,5-c][1,8]naphthyridin-4-one], the pIC50 in experiment [1] (class symbols) is > 7.00; in experiment [1] (numeric values) it was 7.33; in experiment [2], 6.61; in experiment [3], 5.66.

`Cc1ncccc1-n1c(=O)c2ncn(C)c2c2ccc(Cl)cc21` (atropisomer, axis not shown) [Compound 46, 7-chloro-1-methyl-5-(2-methylpyridin-3-yl)-1,5-dihydro-4H-imidazo[4,5-c]quinolin-4-one]: the pIC50 in experiment [1] (class symbols) is > 7.00; in experiment [1] (numeric values), 7.31; in experiment [2], 7.06; in experiment [3] it was 6.32.

As to `Cn1cnc2c(=O)n(-c3cccnc3C(F)(F)F)c3cc(Cl)ccc3c21` (atropisomer, axis not shown) [Compound 47, 7-chloro-1-methyl-5-(2-(trifluoromethyl)pyridin-3-yl)-1,5-dihydro-4H-imidazo[4,5-c]quinolin-4-one], the pIC50 in experiment [1] (class symbols) is > 7.00; in experiment [1] (numeric values), 7.30; in experiment [2] it was 6.63; in experiment [3] it was < 5.00.

On to `Cn1cnc2c(=O)n(-c3cccnc3C3CC3)c3cc(Cl)ccc3c21` (atropisomer, axis not shown) [Compound 49, 7-chloro-5-(2-cyclopropylpyridin-3-yl)-1-methyl-1,5-dihydro-4H-imidazo[4,5-c]quinolin-4-one], for which the pIC50 in experiment [1] (class symbols) is > 7.00; in experiment [1] (numeric values) it was 7.55; in experiment [2] it was 7.06; in experiment [3] it was 5.79.

Regarding `O=c1c2ncoc2c2ccc(C(F)(F)F)nc2n1-c1cccnc1C1CC1` (atropisomer, axis not shown) [Compound 81, 5-(2-cyclopropylpyridin-3-yl)-7-(trifluoromethyl)oxazolo[4,5-c][1,8]naphthyridin-4(5H)-one], the pIC50 in experiment [1] (class symbols) is > 7.00; in experiment [1] (numeric values), 7.28; in experiment [2], 6.73; in experiment [3], 5.71.

For `Cc1c(F)cccc1-n1c(=O)c2ncn(C)c2c2ccc(C(F)(F)F)nc21` (single isomer, unassigned) [Compound 43-P2, 5-(3-fluoro-2-methylphenyl)-1-methyl-7-(trifluoromethyl)-1,5-dihydro-4H-imidazo[4,5-c][1,8]naphthyridin-4-one], the pIC50 in experiment [1] (class symbols) is > 7.00; in experiment [1] (numeric values), 7.55; in experiment [2] it was 7.10; in experiment [3], 6.45.

With `Cc1ncccc1-n1c(=O)c2ncn(C)c2c2ccc(Cl)cc21` (single isomer, unassigned) [Compound 46-P2, 7-chloro-1-methyl-5-(2-methylpyridin-3-yl)-1,5-dihydro-4H-imidazo[4,5-c]quinolin-4-one], the pIC50 in experiment [1] (class symbols) is > 7.00; in experiment [1] (numeric values), 7.70; in experiment [2] it was 7.48; in experiment [3], 6.67.

For `Cn1cnc2c(=O)n(-c3cccnc3C(F)(F)F)c3cc(Cl)ccc3c21` (single isomer, unassigned) [Compound 47-P2, 7-chloro-1-methyl-5-(2-(trifluoromethyl)pyridin-3-yl)-1,5-dihydro-4H-imidazo[4,5-c]quinolin-4-one], the pIC50 in experiment [1] (class symbols) was > 7.00; in experiment [1] (numeric values), 7.63; in experiment [2], 6.89; in experiment [3], 5.08.

As to `COc1c(F)cccc1-n1c(=O)c2ncn(C)c2c2ccc(C(F)(F)F)nc21` (single isomer, unassigned) [Compound 70-P2, 5-(3-fluoro-2-methoxyphenyl)-1-methyl-7-(trifluoromethyl)-1,5-dihydro-4H-imidazo[4,5-c][1,8]naphthyridin-4-one], the pIC50 in experiment [1] (class symbols) is > 7.00; in experiment [1] (numeric values), 7.42; in experiment [2] it was 6.31; in experiment [3] it was 5.10.

For `Cn1cnc2c(=O)n(-c3cnccn3)c3nc(C(F)(F)F)ccc3c21` [Compound 77, 1-methyl-5-(pyrazin-2-yl)-7-(trifluoromethyl)-1,5-dihydro-4H-imidazo[4,5-c][1,8]naphthyridin-4-one], the results for the pIC50 in experiment [1] (class symbols) and in experiment [1] (numeric values) were 6.30 to 7.00 and 6.47, respectively.

In the case of `Cn1cnc2c(=O)n(-c3cccc(F)c3F)c3nc(C(F)(F)F)ccc3c21` [Compound 78, 5-(2,3-difluorophenyl)-1-methyl-7-(trifluoromethyl)-1,5-dihydro-4H-imidazo[4,5-c][1,8]naphthyridin-4-one], the pIC50 is > 7.00 in experiment [1] (class symbols) and 7.10 in experiment [1] (numeric values).

As for `Cc1ncncc1-n1c(=O)c2ncn(C)c2c2ccc(C(F)(F)F)nc21` [Compound 79, 1-methyl-5-(4-methylpyrimidin-5-yl)-7-(trifluoromethyl)-1,5-dihydro-4H-imidazo[4,5-c][1,8]naphthyridin-4-one], the pIC50 in experiment [1] (class symbols) is 6.30 to 7.00; in experiment [1] (numeric values) it was 6.99.

Consider `Cc1ncccc1-n1c(=O)c2ncoc2c2ccc(Cl)cc21` [Compound 83, 7-chloro-5-(2-methylpyridin-3-yl)oxazolo[4,5-c]quinolin-4(5H)-one], for which the pIC50 in experiment [1] (class symbols) is > 7.00; in experiment [1] (numeric values), 7.26.

As to `Cn1cnc2c(=O)n(-c3cccnc3C(F)(F)F)c3cc(C(F)(F)F)ccc3c21` [Compound 84, 1-methyl-7-(trifluoromethyl)-5-(2-trifluoromethylpyridin-3-yl)-1,5-dihydro-4H-imidazo[4,5-c]quinolin-4-one], the pIC50 is > 7.00 in experiment [1] (class symbols) and 7.27 in experiment [1] (numeric values).
